Measured values published in patent publication US4156777A, “Process for producing glucopyranose-nitrosourea compounds and novel compounds included therein” (Tokyo Tanabe Company, Limited, priority 1977, dated 1979).
Values after ≈ are worked out from the molar mass of the structure shown.

What was measured:
[1] = Solubility in water at 25° C.; type: physicochemical
leukemia L-1210 = assay: Antitumor activity against leukemia L-1210 implanted in BDF1 mice (ILS, 60 days survivors); type: in vivo
Source text: Test compounds were given to BDF1 mice 24 hrs after implantation of 10^6 cells of leukemia L-1210 in each animal, through single intraperitoneal administration, intraperitoneal administration for 5 successive days, single oral administration or oral administration for 5 successive days, whereupon the increase in life span (referred to as "ILS") and number of 60 days survivors of test animals were estimated, said test of antitumor activity being that according to the method of the National Cancer Center, Tokyo [A. Hoshi et al: Farmashia, 9 (1973), 464]. In the tests, the compounds were dissolved in physiological saline solution just before administration.
^a i.p.: intraperitoneal administration p.o: oral administration
D1 : single administration D1~5 : administration for 5
^b percentage calculated from mean survival time over control
^c survivors/six animals

[2] = Diabetogenic activity (blood glucose concentration after intravenous administration); type: in vivo, male Wister rats
Description: 40-96 mg/kg of the test compounds were administered intravenously to starved male Wister rats weighing 240-260 g each, and the blood glucose concentrations of the test animals were estimated by the glucose exidase method [L. L. Saloman et al: Anal. Chem., 31 (1959), 453], in which test the compounds were dissolved in physiological saline solution just before administration. […]

Acute toxicity (LD50) = type: in vivo, male Wister rats; conditions: for LD50 at 168 h: rat, in vivo, after 1 week
Description: Test compounds were dissolved in physiological saline solution just before their dosage and administered to male Wister rats, intraperitoneally, intravenously and orally. After 1 week, the LD50 of each compound was calculated from the mortality of the test animals by the Lichfield-Wilcoxon Method.
i.v.: intravenous administration

[3] = Absorption and excretion of 14C-labelled compounds; type: in vivo, rats
Description: The carbon atom at the 2-position of the chloroethyl group (i.e. ClCH2 CH2 -) of 6DCNU and 6MCαG was labelled with radioactive ^14 C, and the absorption and excretion of these compounds were tested using rats.

[4] = tested on: Bacillus subtilis ATCC 6633; assay: Antibacterial activity, broth-dilution method; type: cell-based; conditions: ATCC6633
Source text: (§1) Using 6DCNU and 6MCαG, minimum inhibiting concentrations (referred to as "MIC") for various kinds of bacteria were estimated by means of the broth-dilution method.

[5] = tested on: Escherichia coli NIHJ JC-2; assay: Antibacterial activity, broth-dilution method; type: cell-based; conditions: NIHJJC2
Source text: as §1

[6] = tested on: Klebsiella pneumoniae IFM 3008; assay: Antibacterial activity, broth-dilution method; type: cell-based; conditions: IFM3008
Source text: as §1

[7] = tested on: Mycobacterium smegmatis ATCC 607; assay: Antibacterial activity, broth-dilution method; type: cell-based; conditions: Mycolicibacterium smegmatis, ATCC607
Source text: as §1

[8] = tested on: Proteus vulgaris AHU 1469; assay: Antibacterial activity, broth-dilution method; type: cell-based; conditions: AHU1469
Source text: as §1

[9] = tested on: Pseudomonas aeruginosa IFO 3080; assay: Antibacterial activity, broth-dilution method; type: cell-based; conditions: IFO3080
Source text: as §1

Sarcina lutea ATCC 9341 = assay: Antibacterial activity, broth-dilution method; type: cell-based; conditions: Micrococcus luteus, ATCC9341
Source text: as §1

Shigella sonnei = assay: Antibacterial activity, broth-dilution method; type: cell-based
Source text: as §1

[10] = tested on: Staphylococcus aureus FDA 209P JC-1; assay: Antibacterial activity, broth-dilution method; type: cell-based; conditions: FDA209P
Source text: as §1

[11] = tested on: Streptococcus faecalis AHU 1085; assay: Antibacterial activity, broth-dilution method; type: cell-based; conditions: Enterococcus faecalis, AHU1085
Source text: as §1

O=NN(CCCl)C(=O)NC[C@H]1OC(O)[C@H](O)[C@@H](O)[C@@H]1O (stereo partly drawn) [Example 6DCNU, 3-(D-glucopyranos-6-yl)-1-(2-chloroethyl)-1-nitrosourea]
solubility ([1]; amount soluble in 1 ml water at 25° C.): 750 mg/mL (≈ 2390 mM)
solubility in water, comparison in words ([1]; water, 25° C.): higher than that of both DCNU and 2MCαG and is almost equal to that of 6MCαG
ILS (leukemia L-1210; 3.2 mg/kg/day, i.p. D1~5): > 310%
Survivors (60 days) (leukemia L-1210; 3.2 mg/kg/day, i.p. D1~5): 2/6
ILS (leukemia L-1210; 6.3 mg/kg/day, i.p. D1~5): > 410%
Survivors (60 days) (leukemia L-1210; 6.3 mg/kg/day, i.p. D1~5): 4/6
ILS (leukemia L-1210; 12.5 mg/kg/day, i.p. D1): > 426%
Survivors (60 days) (leukemia L-1210; 12.5 mg/kg/day, i.p. D1): 4/6
ILS (leukemia L-1210; 12.5 mg/kg/day, i.p. D1~5): > 520%
Survivors (60 days) (leukemia L-1210; 12.5 mg/kg/day, i.p. D1~5): 5/6
ILS (leukemia L-1210; 12.5 mg/kg/day, p.o. D1~5): > 123%
ILS (leukemia L-1210; 15.0 mg/kg/day, i.p. D1~5): > 650%
Survivors (60 days) (leukemia L-1210; 15.0 mg/kg/day, i.p. D1~5): 6/6
ILS (leukemia L-1210; 20.0 mg/kg/day, i.p. D1~5): > 670%
Survivors (60 days) (leukemia L-1210; 20.0 mg/kg/day, i.p. D1~5): 6/6
ILS (leukemia L-1210; 25.0 mg/kg/day, i.p. D1): > 561%
Survivors (60 days) (leukemia L-1210; 25.0 mg/kg/day, i.p. D1): 5/6
ILS (leukemia L-1210; 25.0 mg/kg/day, i.p. D1~5): > 540%
Survivors (60 days) (leukemia L-1210; 25.0 mg/kg/day, i.p. D1~5): 5/6
ILS (leukemia L-1210; 25.0 mg/kg/day, p.o. D1~5): > 260%
Survivors (60 days) (leukemia L-1210; 25.0 mg/kg/day, p.o. D1~5): 2/6
ILS (leukemia L-1210; 30.0 mg/kg/day, i.p. D1~5): > 315%
Survivors (60 days) (leukemia L-1210; 30.0 mg/kg/day, i.p. D1~5): 3/6
ILS (leukemia L-1210; 35.0 mg/kg/day, p.o. D1~5): > 390%
Survivors (60 days) (leukemia L-1210; 35.0 mg/kg/day, p.o. D1~5): 3/6
ILS (leukemia L-1210; 40.0 mg/kg/day, i.p. D1~5): > 225%
Survivors (60 days) (leukemia L-1210; 40.0 mg/kg/day, i.p. D1~5): 2/6
ILS (leukemia L-1210; 50.0 mg/kg/day, i.p. D1): > 606%
Survivors (60 days) (leukemia L-1210; 50.0 mg/kg/day, i.p. D1): 5/6
ILS (leukemia L-1210; 50.0 mg/kg/day, p.o. D1~5): > 442%
Survivors (60 days) (leukemia L-1210; 50.0 mg/kg/day, p.o. D1~5): 3/6
ILS (leukemia L-1210; 70.0 mg/kg/day, i.p. D1): > 321%
Survivors (60 days) (leukemia L-1210; 70.0 mg/kg/day, i.p. D1): 3/6
ILS (leukemia L-1210; 70.0 mg/kg/day, p.o. D1~5): > 370%
Survivors (60 days) (leukemia L-1210; 70.0 mg/kg/day, p.o. D1~5): 3/6
ILS (leukemia L-1210; 100.0 mg/kg/day, i.p. D1): -3%
ILS (leukemia L-1210; 100.0 mg/kg/day, p.o. D1~5): > 246%
Survivors (60 days) (leukemia L-1210; 100.0 mg/kg/day, p.o. D1~5): 2/6
ILS (leukemia L-1210; 150.0 mg/kg/day, i.p. D1): -10%
ILS (leukemia L-1210; 200.0 mg/kg/day, i.p. D1): -34%
antitumor activity, comparison in words (leukemia L-1210; L-1210, BDF1 mice): superior to that of DCNU, GANU and 2MCαG, and is almost equal to that of 6MCαG
antitumor activity, in words (leukemia L-1210; mouse, in vivo): excellent antitumor activity
antitumor activity in oral administration, in words (leukemia L-1210; oral administration): high activity equal to that of 6MCαG in oral administration
Blood Glucose Concentration ([2]; 40 mg/kg i.v., 0 hr after treatment): 70.4 mg/dL
Blood Glucose Concentration ([2]; 40 mg/kg i.v., 2 hr after treatment): 73.3 mg/dL
Blood Glucose Concentration ([2]; 40 mg/kg i.v., 4 hr after treatment): 67.7 mg/dL
Blood Glucose Concentration ([2]; 40 mg/kg i.v., 7 hr after treatment): 68.2 mg/dL
Blood Glucose Concentration ([2]; 40 mg/kg i.v., 10 hr after treatment): 68.3 mg/dL
Blood Glucose Concentration ([2]; 40 mg/kg i.v., 24 hr after treatment): 69.9 mg/dL
Blood Glucose Concentration ([2]; 40 mg/kg i.v., 48 hr after treatment): 73.8 mg/dL
Blood Glucose Concentration ([2]; 60 mg/kg i.v., 0 hr after treatment): 72.0 mg/dL
Blood Glucose Concentration ([2]; 60 mg/kg i.v., 2 hr after treatment): 74.2 mg/dL
Blood Glucose Concentration ([2]; 60 mg/kg i.v., 4 hr after treatment): 78.3 mg/dL
Blood Glucose Concentration ([2]; 60 mg/kg i.v., 7 hr after treatment): 76.8 mg/dL
Blood Glucose Concentration ([2]; 60 mg/kg i.v., 10 hr after treatment): 79.2 mg/dL
Blood Glucose Concentration ([2]; 60 mg/kg i.v., 24 hr after treatment): 78.7 mg/dL
Blood Glucose Concentration ([2]; 60 mg/kg i.v., 48 hr after treatment): 79.4 mg/dL
Blood Glucose Concentration ([2]; 77 mg/kg i.v., 0 hr after treatment): 72.4 mg/dL
Blood Glucose Concentration ([2]; 77 mg/kg i.v., 2 hr after treatment): 75.3 mg/dL
Blood Glucose Concentration ([2]; 77 mg/kg i.v., 4 hr after treatment): 75.8 mg/dL
Blood Glucose Concentration ([2]; 77 mg/kg i.v., 7 hr after treatment): 79.8 mg/dL
Blood Glucose Concentration ([2]; 77 mg/kg i.v., 10 hr after treatment): 76.2 mg/dL
Blood Glucose Concentration ([2]; 77 mg/kg i.v., 24 hr after treatment): 78.2 mg/dL
Blood Glucose Concentration ([2]; 77 mg/kg i.v., 48 hr after treatment): 80.5 mg/dL
blood glucose concentrations versus control, in words ([2]; i.v., rats): substantially the same blood glucose concentrations as that in the control
diabetogenic activity, in words ([2]; rat, in vivo): low diabetogenic activity
LD50 at 168 h (Acute toxicity (LD50); ip): 90 mg/kg
LD50 at 168 h (Acute toxicity (LD50); iv): 85 mg/kg
LD50 at 168 h (Acute toxicity (LD50); po): 132 mg/kg
LD50, comparison in words (Acute toxicity (LD50); rats): higher than that of the other known compounds
absorption, in words ([3]; rats, 14C-labelled): absorbed well
excretion rate, intravenous versus oral administration, in words ([3]; rats, 14C-labelled): almost the same excretion rates
main route of excretion, in words ([3]; rats, 14C-labelled): excreted mainly in the urine
excretion in faeces, comparison in words ([3]; versus 6MCαG): excreted more than 6MCαG in faeces
excretion velocity, comparison in words ([3]; versus 6MCαG): more rapid than that of 6MCαG
toxicity inferred from excretion, in words ([3]; versus 6MCαG): less toxic than 6MCαG
MIC [4]: > 200 µg/mL
MIC [5]: > 200 µg/mL
MIC [6]: > 200 µg/mL
MIC [7]: > 200 µg/mL
MIC [8]: > 200 µg/mL
MIC [9]: > 200 µg/mL
MIC (Sarcina lutea ATCC 9341): > 200 µg/mL
MIC (Shigella sonnei): > 200 µg/mL
MIC [10]: > 200 µg/mL
MIC [11]: > 200 µg/mL
